Measured values taken from PubChem BioAssay (NCI).
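All cell lines were grown in 96-well plates and treated with compound for 48 hours. TGI: total growth inhibition.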

How the values were obtained:
Experiment in all cases: NCI anticancer screen, dose series, 48 h
SN12C renal = test system: SN12C renal
MALME-3M melanoma = test system: MALME-3M melanoma
CCRF-CEM leukemia = test system: CCRF-CEM leukemia
HCT-15 colon = test system: HCT-15 colon
SW-620 colon = test system: SW-620 colon
UACC-62 melanoma = test system: UACC-62 melanoma
PC-3 prostate = test system: PC-3 prostate
SK-OV-3 ovarian = test system: SK-OV-3 ovarian
MCF7 breast = test system: MCF7 breast
786-0 renal = test system: 786-0 renal
SF-268 CNS = test system: SF-268 CNS
EKVX NSCLC = test system: EKVX NSCLC
SNB-75 CNS = test system: SNB-75 CNS
IGROV1 ovarian = test system: IGROV1 ovarian
A549 NSCLC = test system: A549 NSCLC
HCC-2998 colon = test system: HCC-2998 colon
CAKI-1 renal = test system: CAKI-1 renal
TK-10 renal = test system: TK-10 renal
MOLT-4 leukemia = test system: MOLT-4 leukemia
RPMI-8226 leukemia = test system: RPMI-8226 leukemia
KM12 colon = test system: KM12 colon
SR leukemia = test system: SR leukemia
RXF 393 renal = test system: RXF 393 renal
SK-MEL-28 melanoma = test system: SK-MEL-28 melanoma
SF-295 CNS = test system: SF-295 CNS
M14 melanoma = test system: M14 melanoma
HOP-62 NSCLC = test system: HOP-62 NSCLC
OVCAR-8 ovarian = test system: OVCAR-8 ovarian
MDA-MB-231 breast = test system: MDA-MB-231 breast
T-47D breast = test system: T-47D breast
MDA-N = test system: MDA-N
NCI-H23 lung = test system: NCI-H23 lung
SK-MEL-5 melanoma = test system: SK-MEL-5 melanoma
SNB-19 CNS = test system: SNB-19 CNS
HOP-92 NSCLC = test system: HOP-92 NSCLC
OVCAR-5 ovarian = test system: OVCAR-5 ovarian
K-562 leukemia = test system: K-562 leukemia
OVCAR-3 ovarian = test system: OVCAR-3 ovarian
A498 renal = test system: A498 renal
NCI/ADR-RES ovarian = test system: NCI/ADR-RES ovarian
HL-60(TB) leukemia = test system: HL-60(TB) leukemia
ACHN renal = test system: ACHN renal
SK-MEL-2 melanoma = test system: SK-MEL-2 melanoma
MDA-MB-435 = test system: MDA-MB-435
BT-549 breast = test system: BT-549 breast
LOX IMVI melanoma = test system: LOX IMVI melanoma
U251 CNS = test system: U251 CNS
COLO 205 colon = test system: COLO 205 colon
OVCAR-4 ovarian = test system: OVCAR-4 ovarian
UACC-257 melanoma = test system: UACC-257 melanoma
HCT-116 colon = test system: HCT-116 colon
DU-145 prostate = test system: DU-145 prostate
SF-539 CNS = test system: SF-539 CNS
UO-31 renal = test system: UO-31 renal
NCI-H226 lung = test system: NCI-H226 lung
HT29 colon = test system: HT29 colon
HS 578T breast = test system: HS 578T breast
NCI-H460 lung = test system: NCI-H460 lung

CC1OC(c2ccccc2)=CC(OCc2ccccc2)[C@H]1OCc1ccccc1 (some centres undefined)
TGI (SN12C renal): > 10 µM | TGI (MALME-3M melanoma): > 10 µM | TGI (CCRF-CEM leukemia): > 10 µM | TGI (HCT-15 colon): > 10 µM | TGI (SW-620 colon): > 10 µM | TGI (UACC-62 melanoma): > 10 µM | TGI (PC-3 prostate): > 10 µM | TGI (SK-OV-3 ovarian): > 10 µM | TGI (MCF7 breast): > 10 µM | TGI (786-0 renal): > 10 µM | TGI (SF-268 CNS): > 10 µM | TGI (EKVX NSCLC): > 10 µM | TGI (SNB-75 CNS): > 10 µM | TGI (IGROV1 ovarian): > 10 µM | TGI (A549 NSCLC): > 10 µM | TGI (HCC-2998 colon): > 10 µM | TGI (CAKI-1 renal): > 10 µM | TGI (TK-10 renal): > 10 µM | TGI (MOLT-4 leukemia): > 10 µM | TGI (RPMI-8226 leukemia): > 10 µM | TGI (KM12 colon): > 10 µM | TGI (SR leukemia): > 10 µM | TGI (RXF 393 renal): > 10 µM | TGI (SK-MEL-28 melanoma): > 10 µM | TGI (SF-295 CNS): > 10 µM | TGI (M14 melanoma): > 10 µM | TGI (HOP-62 NSCLC): > 10 µM | TGI (OVCAR-8 ovarian): > 10 µM | TGI (MDA-MB-231 breast): > 10 µM | TGI (T-47D breast): > 10 µM | TGI (MDA-N): > 10 µM | TGI (NCI-H23 lung): > 10 µM | TGI (SK-MEL-5 melanoma): > 10 µM

CCOC(=O)C1(Cc2c[nH]c3ccccc23)C(O)CCCN1C(C)=O (centres undefined)
TGI (SNB-19 CNS): > 100 µM | TGI (MALME-3M melanoma): > 100 µM | TGI (CCRF-CEM leukemia): > 100 µM | TGI (HOP-92 NSCLC): > 100 µM | TGI (HCT-15 colon): > 100 µM | TGI (OVCAR-5 ovarian): > 100 µM | TGI (SW-620 colon): > 100 µM | TGI (UACC-62 melanoma): > 100 µM | TGI (PC-3 prostate): > 100 µM | TGI (SK-OV-3 ovarian): > 100 µM | TGI (K-562 leukemia): > 100 µM | TGI (MCF7 breast): > 100 µM | TGI (OVCAR-3 ovarian): > 100 µM | TGI (786-0 renal): > 100 µM | TGI (A498 renal): > 100 µM | TGI (SF-268 CNS): > 100 µM | TGI (NCI/ADR-RES ovarian): > 100 µM | TGI (HL-60(TB) leukemia): > 100 µM | TGI (EKVX NSCLC): > 100 µM | TGI (SNB-75 CNS): > 100 µM | TGI (ACHN renal): > 100 µM | TGI (SK-MEL-2 melanoma): > 100 µM | TGI (IGROV1 ovarian): > 100 µM | TGI (A549 NSCLC): > 100 µM | TGI (MDA-MB-435): > 100 µM | TGI (HCC-2998 colon): > 100 µM | TGI (CAKI-1 renal): > 100 µM | TGI (BT-549 breast): > 100 µM | TGI (LOX IMVI melanoma): > 100 µM | TGI (U251 CNS): > 100 µM | TGI (TK-10 renal): > 100 µM | TGI (MOLT-4 leukemia): > 100 µM | TGI (COLO 205 colon): > 100 µM | TGI (OVCAR-4 ovarian): > 100 µM | TGI (UACC-257 melanoma): > 100 µM | TGI (RPMI-8226 leukemia): > 100 µM | TGI (HCT-116 colon): > 100 µM | TGI (KM12 colon): > 100 µM | TGI (SR leukemia): > 100 µM | TGI (DU-145 prostate): > 100 µM | TGI (SF-539 CNS): > 100 µM | TGI (RXF 393 renal): > 100 µM | TGI (UO-31 renal): > 100 µM | TGI (SK-MEL-28 melanoma): > 100 µM | TGI (SF-295 CNS): > 100 µM | TGI (NCI-H226 lung): > 100 µM | TGI (HT29 colon): > 100 µM | TGI (HS 578T breast): > 100 µM | TGI (M14 melanoma): > 100 µM | TGI (HOP-62 NSCLC): > 100 µM | TGI (OVCAR-8 ovarian): > 100 µM | TGI (NCI-H460 lung): > 100 µM | TGI (MDA-MB-231 breast): > 100 µM | TGI (T-47D breast): > 100 µM | TGI (NCI-H23 lung): > 100 µM | TGI (SK-MEL-5 melanoma): > 100 µM
